Publication PMC12508063, “Chloroindazole based estrogen receptor β ligands with favorable pharmacokinetics promote functional remyelination and visual recovery” (Scientific Reports, 2025)
Several values for one entry are separate records, joined by “and”; a condition that tells them apart may be missing. Equal values may be shown once. Read-outs that look alike come from different tables or passages of the source.

Key:
[1] = test system: EAE mice; test: Electroretinogram (ERG) in EAE; format: in vivo, mouse; settings: for ERG A-wave and B-wave amplitude: vs vehicle-treated mice
Procedure: (§1) Optical coherence tomography, electroretinograms and visual evoked potentials: OCT was acquired using the spectral domain‐OCT (R2200 840 nm HHP; Leica, Deerfield, IL) at peak EAE disease according to previously published methods[23],[28]. Each image was taken 3 times and averaged. Automatic segmentation of retinal layers was performed using Bioptigen Diver 3.0 software (Leica Microsystems, Deerfield, IL). ERG and VEPs were measured using the HMsERG200 ([…], Henderson, NV) as previously described[23],[28]. Animals were dark adapted for a minimum of 5 h prior to recording. During acquisition, animals were anesthetized with continuous 2% isoflurane. Traces were averaged and filtered for 60 Hz noise and a low-pass filter. MATLAB was used to adjust baselines and smoothed prior to measuring ERG and VEP amplitudes and latencies.
(§2) Electroretinograms and visual evoked potentials were measured using the HMsERG200 (OcuScience, Henderson, NV) as previously described (8, 9). Animals were dark adapted for a minimum of 5 hours prior to recording. During acquisition, animals were anesthetized with continuous 2% isoflurane. Traces were averaged and filtered for 60 Hz noise and a low-pass filter. MATLAB was used to adjust baselines and smoothed prior to measuring ERG and VEP amplitudes and latencies.

[2] = test system: co-cultures of primary cortical neurons and OPCs; test: Axon myelination in co-cultures of primary cortical neurons and OPCs; format: cell-based, mouse; settings: K102, K110 10 nM; Clemastine, Bazedoxifene 500 nM; 5 days
Description: Mouse and Human primary cell cultures: Primary OPC/OL culture were isolated from the cortices of postnatal day 0–1 C57BL/6J mice of both sexes, using established protocols[11],[20],[21]. Mouse OPC and Neuronal Co-cultures: Primary neuronal cultures were established in Neurobasal medium with B27 and plated on poly-L-lysine-coated coverslips. After 12 days, OPCs were isolated, counted, and added to neuronal cultures and media was replaced with neuronal and proliferation media for 3 days, then switched to maturation media that maintained both neurons and OLs. Human iPSC-derived OPCs (Tempo’s iOligo™) were expanded, cryopreserved, and later plated on Matrigel-coated coverslips. After 3 days in growth medium, cells were treated for 3 weeks with T3 containing maturation medium. Differentiation into myelin-producing OLs was assessed using O4 (OL surface marker on pre-OLs) and myelin basic protein (MBP) immunohistochemistry. […]
Immunocytochemistry and Image Analysis of cell cultures: After treatment, cells were fixed and stained for MBP and DAPI. […] Cell densities were quantified using ImageJ and normalized to control conditions. MBP-positive cells, their process extensions, and highly branched OLs were counted to assess differentiation. Co-culture images were analyzed for MBP and β3-tubulin colocalization using JACoP[22] in ImageJ, with results validated by manual quantification. […]

[3] = for Kp uu Brain Mean / Kp uu Uterus Mean: 40 mg/kg PO; for K p,uu,brain Cmax: single dose oral PK in mouse at 40 mg/kg
Procedure: Plasma samples were 100% plasma or 5-fold diluted plasma; brain homogenate samples were diluted 5-fold with buffer, while uterus homogenate samples were initially diluted 5-fold and then further diluted to 20-fold. Equilibrium dialysis was performed in a 96-well plate system with wells containing 80 µL of buffer and 80 µL of the sample on opposite sides of the membrane. After incubation at 37°C for 5 hours with shaking at 180 rpm, aliquots were collected from both sides of the membrane for further analysis.
For plasma samples, 50 µL of sample was mixed with 50 µL of phosphate buffer, followed by addition of 300 µL quenching solution containing internal standards and DMSO. For 5-fold diluted plasma samples, 35 µL of sample was mixed with 35 µL of blank buffer, followed by 280 µL quenching solution. For tissue homogenate samples, 50 µL samples were mixed with 50 µL of phosphate buffer, followed by 200 µL quenching solution. All samples were vortexed for 1 minute, and centrifuged at 4,000 rpm for 15 minutes, and the supernatant collected for LC-MS/MS analysis, which was performed using an API 5500 mass spectrometer with an ACQUITY UPLC BEH 1.7 μm C18 100 Å column (2.1 mm * 50 mm) and ACE Excel 5 C4 (2.1 * 50 mm) column. Mobile phases were 0.1% formic acid in water or 5 mM NH4OAc with 0.05% formic acid in water (A) and 0.1% formic acid in acetonitrile (B). Run times were 8 minutes for plasma samples and 5 minutes for other sample types. The mass spectrometer was operated in positive electrospray ionization mode.
Free fraction (fu) and recovery were calculated using specific equations for each sample type. For plasma samples, fu (%) was calculated as (Cbuffer / Cplasma) * 100%, and recovery (%) as ((Cplasma + Cbuffer) / T0) * 100%. For 5-fold diluted plasma samples, fu,20% (%) was calculated as (Cbuffer / Cplasma) * 100%, and fu,100% (%) as fu,20% / (5 - 4 * fu,20%) * 100%. Similar equations were used for uterus and brain samples, accounting for their respective dilution factors. These calculations allowed for the determination of the free fraction of the test compound in various tissue compartments and the assessment of recovery rates.

[4] = target: T1, full length purified human ERα (Homo sapiens, UniProt P03372); test: competitive ligand binding assay, tritiated estradiol as tracer
T1 construct: full length purified human ERα and ERβ
T1 sequence (P03372 whole entry): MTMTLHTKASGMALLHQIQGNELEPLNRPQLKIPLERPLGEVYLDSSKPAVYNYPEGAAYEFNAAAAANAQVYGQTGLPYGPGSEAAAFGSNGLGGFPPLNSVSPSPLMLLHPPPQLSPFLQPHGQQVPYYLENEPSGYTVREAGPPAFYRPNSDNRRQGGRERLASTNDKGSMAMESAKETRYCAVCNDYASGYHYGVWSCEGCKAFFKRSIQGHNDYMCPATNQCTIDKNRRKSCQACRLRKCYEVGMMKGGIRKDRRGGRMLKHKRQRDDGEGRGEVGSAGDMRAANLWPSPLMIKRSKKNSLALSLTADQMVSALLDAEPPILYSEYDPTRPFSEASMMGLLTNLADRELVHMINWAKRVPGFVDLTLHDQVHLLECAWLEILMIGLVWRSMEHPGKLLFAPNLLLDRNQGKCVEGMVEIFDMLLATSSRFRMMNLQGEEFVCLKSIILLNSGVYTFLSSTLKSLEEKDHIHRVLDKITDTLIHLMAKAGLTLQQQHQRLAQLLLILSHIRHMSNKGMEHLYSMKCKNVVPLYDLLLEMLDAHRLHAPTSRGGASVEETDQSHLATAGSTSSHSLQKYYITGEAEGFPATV

[5] = test system: CPZ demyelinating model of MS; test: Cuprizone (CPZ) diet demyelination/remyelination model, corpus callosum IHC; settings: for CC1 + OLs compared to RM + V / CD45 immunoreactivity compared to 12wkDM / GFAP expression / myelin (MBP, PLP, and MOG staining) compared to RM + V: corpus callosum, 5 mg/kg/day, 3 wk
Description: CPZ administration and treatment: Mice were fed a diet containing 0.2% bis(cyclohexanone)oxaldihydrazone (CPZ, Teklad Custom Diets, Madison, WI) for 12 weeks, as previously described[15],[27]. A subset of mice was perfused immediately following the 12-week CPZ regimen (12wkDM). […] These mice were perfused and their brains were processed for IHC.

[6] = test system: EAE mice; test: Visual evoked potential (VEP) in EAE; format: in vivo, mouse; settings: vs vehicle-treated
Procedure: as §1, §2

[7] = target: T2, full length purified human ERβ (Homo sapiens, UniProt Q92731); test: competitive ligand binding assay, tritiated estradiol as tracer; settings: for RBA β/α ratio: ERβ/ERα relative affinity ratio
T2 construct: full length purified human ERα and ERβ
T2 sequence (Q92731 whole entry): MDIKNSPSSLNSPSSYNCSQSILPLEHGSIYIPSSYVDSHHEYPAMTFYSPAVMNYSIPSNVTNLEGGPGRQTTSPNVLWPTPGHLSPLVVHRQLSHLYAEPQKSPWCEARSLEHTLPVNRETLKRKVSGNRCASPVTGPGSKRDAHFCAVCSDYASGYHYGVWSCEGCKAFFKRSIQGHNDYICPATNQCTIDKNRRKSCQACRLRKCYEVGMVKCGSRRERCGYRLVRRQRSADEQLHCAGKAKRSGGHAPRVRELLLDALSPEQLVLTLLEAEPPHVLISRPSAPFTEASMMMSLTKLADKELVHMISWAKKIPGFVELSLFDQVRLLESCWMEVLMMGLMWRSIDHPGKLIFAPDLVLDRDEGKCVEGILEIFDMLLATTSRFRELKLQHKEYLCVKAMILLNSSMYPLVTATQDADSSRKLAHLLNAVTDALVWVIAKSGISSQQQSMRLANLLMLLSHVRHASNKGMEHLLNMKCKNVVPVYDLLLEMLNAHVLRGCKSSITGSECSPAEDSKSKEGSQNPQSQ

[8] = target: CYP3A4 (Homo sapiens, UniProt P08684); test: CYP inhibition (midazolam and testosterone substrates); settings: test compounds at 10 μM; for CYP Inhibition Percentage CYP3A4-M: substrate Midazolam
CYP3A4, sequence (P08684 whole entry): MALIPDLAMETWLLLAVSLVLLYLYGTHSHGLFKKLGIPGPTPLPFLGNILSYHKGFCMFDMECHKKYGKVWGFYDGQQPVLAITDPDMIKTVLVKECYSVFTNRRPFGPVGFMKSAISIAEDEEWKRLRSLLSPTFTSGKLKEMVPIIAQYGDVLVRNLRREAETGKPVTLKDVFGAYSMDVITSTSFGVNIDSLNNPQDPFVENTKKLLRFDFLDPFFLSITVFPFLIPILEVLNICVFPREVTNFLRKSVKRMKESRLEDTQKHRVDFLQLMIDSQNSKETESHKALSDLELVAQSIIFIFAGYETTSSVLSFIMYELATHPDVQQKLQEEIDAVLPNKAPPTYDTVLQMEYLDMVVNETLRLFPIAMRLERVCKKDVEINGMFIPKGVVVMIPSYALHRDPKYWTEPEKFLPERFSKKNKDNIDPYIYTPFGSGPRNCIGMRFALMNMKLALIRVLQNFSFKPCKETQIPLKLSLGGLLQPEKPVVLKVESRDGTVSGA

[9] = Uterine weight and body weight in EAE mice; settings: for Body weight / Uterine weight / Uterine weight/body weight ratio: EAE mice; for uterine weight relative to body weight: normal or EAE intact female mice
Description: The animals from Hook EAE experiment Figure 3Bii were used. […] (S6ii) The weight of the uteri removed from mice relative to total body weight along with the raw uterine weight and body weight at the end of this experiment is plotted.

[10] = test system: EAE mice; test: Rotarod motor performance in EAE; format: in vivo, mouse; settings: 5 mg/kg SC
Procedure: EAE induction and treatment: EAE was induced in 8–10-week-old wild-type C57BL/6J mice using MOG₃₅-₅₅ peptide[11],[14],[23]–[25]. Mice were scored daily using a standard clinical scale (0–5) and tested for their ability to stay on a rotarod. […] At peak disease (18–22 days post-immunization), animals were grouped into EAE+Vehicle, EAE+K102, and EAE+K110.
Rotarod Motor Performance: Mice cages were moved to the behavioral room 1 hour prior to testing. Motor performance was assessed using the Rotarod apparatus (Med Associates, Inc., St. Albans, VT) as previously performed with modifications(5, 6). Briefly, mice were placed on the rotating horizontal rod set to a speed of 3 – 30 rpm for a maximum of 300 seconds. The amount of time the mouse was able to walk on the accelerating rod was recorded. Each mouse was tested in three trials separated by 15 minute intertrial intervals. The average of the three trials was reported as a single value for each mouse. Statistical analysis was performed in GraphPad Prism 10 software using Mann-Whitney test.

[11] = Stability in human plasma; format: in vitro ADME
[12] = test system: primary mouse OPCs; test: OL differentiation in primary mouse OPC culture (MBP, DAPI); format: cell-based; settings: for MBP+ OLs vs vehicle-treated wells: 10 nM; for number of MBP+ cells vs vehicle: 10 nM and 100 nM, concentration-dependent
Description: Mouse and Human primary cell cultures: Primary OPC/OL culture were isolated from the cortices of postnatal day 0–1 C57BL/6J mice of both sexes, using established protocols[11],[20],[21]. Mouse OPC and Neuronal Co-cultures: Primary neuronal cultures were established in Neurobasal medium with B27 and plated on poly-L-lysine-coated coverslips. After 12 days, OPCs were isolated, counted, and added to neuronal cultures and media was replaced with neuronal and proliferation media for 3 days, then switched to maturation media that maintained both neurons and OLs. Human iPSC-derived OPCs (Tempo’s iOligo™) were expanded, cryopreserved, and later plated on Matrigel-coated coverslips. After 3 days in growth medium, cells were treated for 3 weeks with T3 containing maturation medium. Differentiation into myelin-producing OLs was assessed using O4 (OL surface marker on pre-OLs) and myelin basic protein (MBP) immunohistochemistry. In all conditions compounds or vehicle were added to culture during differentiation for either 5 days (mouse) or 18 days (human).
Immunocytochemistry and Image Analysis of cell cultures: After treatment, cells were fixed and stained for MBP and DAPI. Coverslips were imaged using a confocal microscope at 10× and 40× objectives. Cell densities were quantified using ImageJ and normalized to control conditions. MBP-positive cells, their process extensions, and highly branched OLs were counted to assess differentiation. Co-culture images were analyzed for MBP and β3-tubulin colocalization using JACoP[22] in ImageJ, with results validated by manual quantification.
Primary OL Progenitor cells (OPC) and Neuronal Cultures: OPC and cortical neuronal cultures were prepared from the cortices of postnatal day P0-P1 C57BL/6J mice of both sexes, following established protocols (1, 2);(3). The single-cell suspension was divided into two tubes. One tube was treated with warm Neuronal Basal media, counted, and plated onto poly-L-lysine (PLL)-coated glass coverslips. The second tube was resuspended in glial growth medium, composed of DMEM-F12 supplemented with 10% fetal bovine serum, and placed in a PLL-coated culture flask for 8–10 days until confluent. Primary OPCs were then isolated by shaking and either co-cultured with primary neurons or plated onto poly-D-lysine-coated glass coverslips (three coverslips per condition, 2x10^6 cells per coverslip). The OPCs were allowed to attach for three days, followed by five days in differentiating media (DMEM-F12 with Sato media containing triiodothyronine and thyroxine) supplemented with various analogues and remyelinating compounds. For comparison, a negative control (vehicle, consisting of the media and ethanol mixture used to dissolve the analogues and remyelinating compounds) and a normal control (differentiating media alone) were included in the experiments.
Quantification of Mature OLs and Co-culture axon myelination: At the conclusion of the treatment period, cells were fixed and subjected to immunocytochemistry to evaluate myelin basic protein (MBP) expression, co-stained with the nuclear marker DAPI (shown in blue). […] Cell counting was performed using the ImageJ multipoint tool, and cell densities were calculated by dividing the counts by the image area (mm²). […]
To assess OL differentiation, the number of MBP-positive (MBP+) cells and process extensions exceeding the diameter of the cell body were quantified.

[13] = test system: splenocytes from EAE mice; test: Splenocyte cytokine/chemokine analysis ex vivo (MOG35-55 stimulation); format: in vivo, mouse; settings: K102 5 or 30 mg/kg, K110 10 or 30 mg/kg; 40 dpi
Procedure: Splenocyte Isolation and Cytokine Analysis: Spleens were collected from mice prior to transcardial perfusion, and splenocytes were isolated, counted, and resuspended in RPMI medium. After 1 h incubation, cells were stimulated with 25 µg/mL MOG₃₅-₅₅, and supernatants were collected 48 h later. Cytokine and chemokine levels in the supernatants, including pro- and anti-inflammatory markers as well as chemokines were analyzed by The Cytokine Core (Indianapolis, IN).
In MS and EAE, peripherally activated immune cells release inflammatory cytokines and chemokines, triggering demyelination and axonal damage. To examine how different concentrations of K102 (5 mg/kg or 30 mg/kg) (Fig. 4A) and K110 (10 mg/kg or 30 mg/kg) (Fig. 4B) influence the peripheral immune response, splenocytes were isolated from EAE mice at 40 dpi. These splenocytes were then stimulated ex vivo with MOG35-55 and analyzed for cytokine and chemokine expression.
Splenocyte Isolation and Cytokine Analysis: Spleens were removed from mice prior to transcardial perfusion. After isolation, splenocytes were counted and resuspended in RPMI. Following incubation, splenocytes were stimulated with 25 µg/ml MOG35–55 and supernatants were collected 48 hours later. Levels of the following cytokines and chemokines present in culture supernatants were sent to The Cytokine Core (Indianapolis, IN); pro-inflammatory cytokines: IFNγ, Tumor necrosis factor (TNF)α, IL-1α, IL-1β, IL-3, IL-6, IL9, IL17, Vascular endothelial growth factor (VEGF), CCL5/RANTES and macrophage colony-stimulating factor (M-CSF); anti-inflammatory cytokines: IL-5 and IL-10; chemokines: CXCL10, and CXCL1 were determined.

[14] = relative binding affinity, estradiol = 100

With `Cc1cc(O)ccc1-n1nc2ccc(O)cc2c1Cl` [Compound K102, IndCl-o-Me] the “ERG B-wave latency” value [1] was “improved”, the “ERG A-wave and B-wave amplitude” value [1] was “significant increase” and the “OL processes wrapping axons” value [2] was “significant increase”. The “Kp uu Brain Mean” value ([3]; 0.5 hr) was 0.581, the “Kp uu Uterus Mean” value ([3]; 0.5 hr) was 0.269 and the “Kp uu Brain Mean” value ([3]; 2.0 hr) was 0.333. For the same compound, the “Kp uu Uterus Mean” value ([3]; 2.0 hr) was 0.380, the “Kp uu Brain Mean” value ([3]; 4.0 hr) was 0.629 and the “Kp uu Uterus Mean” value ([3]; 4.0 hr) was 8.681. The “Kp uu Brain Mean” value ([3]; 8.0 hr) was 0.325, the “Kp uu Uterus Mean” value ([3]; 8.0 hr) was 3.086 and the “K p,uu,brain Cmax” value [3] was 0.63. The “RBA ERα” value [4] was 0.37, the “RM/N (remyelination with cpd. vs. normal)” value ([5]; PO) was 76% and the “RM/RM-V (remyelination with cpd. vs. spontaneous remyelination without cpd)” value ([5]; PO) was 121%. For the same compound, the “RM/N (remyelination with cpd. vs. normal)” value ([5]; SC, 5 mg/kg) was 94%, the “RM/RM-V (remyelination with cpd. vs. spontaneous remyelination without cpd)” value ([5]; SC, 5 mg/kg) was 149% and the “CC1 + OLs compared to RM + V” value [5] was “further increase”. For the same compound, the “CD45 immunoreactivity compared to 12wkDM” value [5] was “small but significant decrease”, the GFAP expression [5] was “remained unchanged” and the “myelin (MBP, PLP, and MOG staining) compared to RM + V” value [5] was “significant increase”. For the same compound, the “VEP P1 (or N2) amplitude” value [6] was “significant increase”, the “VEP P1 latency” value [6] was “reduction” and the “RBA ERβ” value [7] was 24.0. For the same compound, the “RBA β/α ratio” value [7] was 65, the “CYP Inhibition Percentage CYP3A4-M” value [8] was 50.95% and the “CYP Inhibition Percentage CYP3A4-T” value ([8]; substrate Testosterone, 10 µM) was 77% and 76.99%. For the same compound, the Body weight ([9]; group average) was 20.124, the Uterine weight ([9]; group average) was 0.055 and the “Uterine weight/body weight ratio” value ([9]; group average) was 0.275. For the same compound, the Body weight ([9]; individual animals) was 19.160 and 19.460 and 20.910 and 21.110 and 19.980, the Uterine weight ([9]; individual animals) was 0.0650 and 0.0330 and 0.0810 and 0.0490 and the “Uterine weight/body weight ratio” value ([9]; individual animals) was 0.3392 and 0.1696 and 0.3874 and 0.2321 and 0.2452. The “uterine weight relative to body weight” value [9] was “no increase”, the “ability to remain on the rotarod” value [10] was “non-significant improvement” and the “% Remaining at 6 hr in Human Plasma” value [11] was 89.39%. The “MBP+ OLs vs vehicle-treated wells” value [12] was “significant increase”, the “number of MBP+ cells vs vehicle” value [12] was “significantly increased” and the CXCL1 production [13] was “did not affect”. For the same compound, the “CXCL10 levels compared to vehicle” value [13] was “reduced”, the “certain anti-inflammatory cytokines compared to vehicle” value [13] was “significantly lower” and the “pro-inflammatory cytokine levels compared to vehicle” value [13] was “reduced”.
With `Oc1ccc(-n2nc3ccc(O)cc3c2Cl)c(O)c1` [Compound K110, IndCl-o-OH] the “ERG B-wave latency” value [1] was “improved”, the “ERG A-wave and B-wave amplitude” value [1] was “significant increase” and the “OL processes wrapping axons” value [2] was “significant increase”. The “Kp uu Brain Mean” value ([3]; 0.5 hr) was 0.232, the “Kp uu Uterus Mean” value ([3]; 0.5 hr) was 0.516 and the “Kp uu Brain Mean” value ([3]; 2.0 hr) was 0.802. For the same compound, the “Kp uu Uterus Mean” value ([3]; 2.0 hr) was 10.651, the “Kp uu Brain Mean” value ([3]; 4.0 hr) was 0.280 and the “Kp uu Uterus Mean” value ([3]; 4.0 hr) was 45.849. The “Kp uu Brain Mean” value ([3]; 8.0 hr) was 0.294, the “Kp uu Uterus Mean” value ([3]; 8.0 hr) was 6.280 and the “K p,uu,brain Cmax” value ([3]; 40 mg/kg) was 0.8. The “RBA ERα” value [4, 14] was 0.09, the “RM/N (remyelination with cpd. vs. normal)” value ([5]; PO) was 100% and the “RM/RM-V (remyelination with cpd. vs. spontaneous remyelination without cpd)” value ([5]; PO) was 127%. For the same compound, the “RM/N (remyelination with cpd. vs. normal)” value ([5]; SC, 5 mg/kg) was 84%, the “RM/RM-V (remyelination with cpd. vs. spontaneous remyelination without cpd)” value ([5]; SC, 5 mg/kg) was 133% and the “CC1 + OLs compared to RM + V” value [5] was “further increase”. For the same compound, the “CD45 immunoreactivity compared to 12wkDM” value [5] was “small but significant decrease”, the GFAP expression [5] was “remained unchanged” and the “myelin (MBP, PLP, and MOG staining) compared to RM + V” value [5] was “significant increase”. The “VEP P1 (or N2) amplitude” value [6] was “did not affect”, the “VEP P1 latency” value [6] was “did reduce” and the “RBA β/α ratio” value [7] was 48. The “RBA ERβ” value [7, 14] was 4.35, the “CYP Inhibition Percentage CYP3A4-M” value [8] was 13.95% and the Body weight ([9]; group average) was 15.27. The Uterine weight ([9]; group average) was 0.04, the “Uterine weight/body weight ratio” value ([9]; group average) was 0.26 and the Body weight ([9]; individual animals) was 14.58 and 15.48 and 15.50 and 14.68 and 16.10. For the same compound, the Uterine weight ([9]; individual animals) was 0.044 and 0.027 and 0.034 and 0.056, the “Uterine weight/body weight ratio” value ([9]; individual animals) was 0.3018 and 0.1744 and 0.2194 and 0.3815 and 0.2112 and the “uterine weight relative to body weight” value [9] was “no increase”. The “ability to remain on the rotarod” value [10] was “non-significant improvement”, the “% Remaining at 6 hr in Human Plasma” value [11] was 105.99% and the “MBP+ OLs vs vehicle-treated wells” value [12] was “significant increase”. The “number of MBP+ cells vs vehicle” value [12] was “significantly increased”, the CXCL1 production [13] was “did not affect” and the “CXCL10 levels compared to vehicle” value [13] was “reduced”. The “certain anti-inflammatory cytokines compared to vehicle” value [13] was “significantly lower” and the “pro-inflammatory cytokine levels compared to vehicle” value [13] was “reduced”.
